Laboratory results as given in patent publication US20060281695A1, “Control of parasites in animals by N-[(phenyloxy)phenyl]-1,1,1-trifluoromethanesulfonamide and N-[(phenylsulfanyl)phenyl]-1,1,1-trifluoromethanesulfonamide derivatives” (priority 2005, published 2006).

Assays:
[1] = system: cat flea (Ctenocephalides felis); experiment: Ctenocephalides felis adulticide assay: dose response on treated glass surface (LC50, 24 hours); type: in vivo; settings: adult cat fleas, 24 h mortality, probit analysis
Description: (§1) The LC50 value is the concentration, expressed as μg/cm^2, that was required to kill 50% of the sample of cat fleas on contact with the tested compound. Certain tests are also reported as the percent of a sample of cat fleas that were killed at a concentration of 1.26 μg/cm^2 (“% mortality”), for the compounds tested in this way.
c) Ctenocephalides felis Adulticide Assay: C. felis dose response The purpose of this example is to determine the LC50 when cat fleas are contacted with a glass surface treated with sample compounds or formulations prepared as described above. Mortality of fleas is defined as follows: fleas are considered dead if they don't move or are on their sides and unable to walk or right themselves. LC50: Lethal Concentration 50— concentration of glass surface treatment at which 50% of the cat fleas are killed.
The test species employed was the cat flea (Ctenocephalides felis). The strain used was obtained from external suppliers as pupae and held in the laboratory under testing conditions until the adults had emerged. Fifteen (15) fleas were used in a minimum of four replicates for each dose level (total of 60 fleas per dose level). The insects were selected to be in the adult life stage, aged between 3 and 7 days post emergence.
The compounds to be tested were dissolved in acetone just prior to testing. Samples of compounds were stored in a refrigerator (5±1° C.) unless otherwise specified. During the mortality testing, the temperature was maintained at 25±1° C. Humidity was maintained at 75±5%. The base (area=159 mm^2) of a 100 mL glass Erlenmeyer (conical) flask provided the treatment surface. Flasks were pre-treated with Coatasil™ glass treatment to maximise bio-availability of test compounds by preventing them from binding to the glass surface.
Six dose levels (concentrations) of test sample, in the form of a serial dilution, were derived from a pilot study and covered a range that produced very low to very high mortality. The base of the 100 mL Erlenmeyer flask was treated with 0.5 mL of test sample in acetone and gently swirled. This volume was sufficient to cover the base of the flask. Flasks were left to dry for 24 hours before flea exposure. Adult cat fleas were lightly anaesthetised by cooling and then placed into a sorting chamber, which allowed fleas to revive and jump into the Erlenmeyer flasks. Fifteen (15) adult cat fleas were collected in each flask. The top of the flasks were then covered in Parafilm™ and small holes made to allow gas exchange. A 0.5 mL volume of acetone was applied to the base of an Erlenmeyer flask and the testing proceeded in the same manner described above. Cat fleas in the treatment containers were held under testing conditions for 24 hours. Mortality resulting from the treatments was recorded at 24 hours. […] 3rd ed. Cambridge Univ. Press, London (1971)].
(§2) In Table 7, provided below, are listed the Haemonchus contortus LD99 values (measured in micrograms/mL), the Ctenocephalides felis rapid screening values (measured in % mortality), the Ctenocephalides felis LC50 values (measured in micrograms/cm^2) and the Rhipicephalus sanguineus rapid screening values (measured in % mortality) for selected compounds in accordance with the present invention.

[2] = system: cat flea (Ctenocephalides felis); experiment: Ctenocephalides felis adulticide assay: single dose screen on treated glass surface (% mortality at 1.26 μg/cm^2, 24 hours); type: in vivo; settings: for Ctenocephalides felis Mortality (%) 24 h: in vivo
Description: as §1
b) Ctenocephalides felis Adulticide Assay: C.felis single dose screen
Mortality of fleas is the primary endpoint in the assay. […] The concentration chosen (1.26 μg/cm^2) is higher than that known to kill 90% of cat fleas (LC90) using the reference compound, permethrin.
The test species employed was the cat flea (Ctenocephalides felis). The strain used was obtained from external suppliers as pupae and held in the laboratory under testing conditions until the adults had emerged. Fifteen (15) fleas were used in a minimum of four replicates against a single concentration level (approximately 60 fleas). The insects were selected to be in the adult life stage, aged between 3 and 7 days post emergence.
The compounds to be tested were supplied as solids and were prepared in acetone as described below prior to testing. Samples were stored in a refrigerator (5±1° C.) unless otherwise specified.
During the mortality testing, the temperature was maintained at 25±1° C. Humidity was maintained at 75±5%. The base (area=159 mm^2) of a 100 mL glass Erlenmeyer (conical) flask provided the treatment surface. Flasks were pre-treated with Coatasil™ glass treatment to maximise bio-availability of test compounds by preventing them from binding to glass the surface. The base of the 100 mL Erlenmeyer flask was treated with 0.5 mL of test sample in acetone and gently swirled. This volume was sufficient to cover the base of the flask. Flasks were left to dry for 24 hours before flea exposure.
Adult cat fleas were placed into a sorting chamber, which allowed fleas to jump into the Erlenmeyer flasks. Fifteen (15) adult cat fleas were collected in each flask. The top of the flasks were then covered in Parafilm™ and small holes were made to allow gas exchange. A 0.5 mL volume of acetone as a solvent control was applied to the base of an Erlenmeyer flask and the testing proceeded in the same manner described above. […] Pooled 24 hour mortality data were converted to percentages and are summarized by Table 4, below.
as §2

Haemonchus contortus = Haemonchus contortus larvacidal (larval development) assay, LD99; type: in vitro
Description: The LD99 value is the dose, expressed as […], that was required to kill 99% of a sample of Haemonchus contortus.
a) Haemonchus Contortus Larvacidal Assay:
The effect of compounds on larval development was determined in the assay described by Gill et al. [International Journal of Parasitology 25:463-470 (1995)]. Briefly, in this assay, nematode eggs are applied to the surface of an agar matrix containing the test compound and then allowed to develop through to the L3, infective stage (6 days). The wells for each dilution of every compound (from highest to lowest concentration) are inspected to determine the well number corresponding to the lowest concentration at which development is inhibited in 99% of the nematode larvae present (LD99). Because well numbers correspond to a two-fold serial dilution of each compound, a titre (dilution factor) is generated as 2^n−1, where n is the well number. By dividing the highest concentration tested by the titre an LD99 value can be obtained, representing the concentration required to inhibit development in 99% of the nematode larvae present. The compounds supplied as solid and viscous liquids are dissolved in DMSO. Twelve serial one-half dilutions in DMSO solution are prepared from the stock solution, each of which is then diluted 1/5 with water. Aliquots (10 μl) of each dilution are transferred to the bioassay plates to give a final concentration range of 0.024 to 50 μg/ml.
as §2

[3] = system: Brown Dog Tick (Rhipicephalus sanguineus); experiment: Topical application on brown dog ticks, single dose screen (% mortality at 24 hours); type: in vivo; settings: adult brown dog ticks, topical 1 μL in acetone on abdomen, single dose 10 μg per tick
Description: d) Topical Application On Brown Dog Ticks (Rhipicephalus sanguineus)
The aim of the test is to determine the presence of significant acaricidal activity in sample compounds or formulations when applied topically on brown dog ticks. A tick is defined as dead if it gives no apparent response when: (i) touched lightly and (ii) then observed for 1 minute. To assess the experimental compound for acaricidal activity, a single dose level is chosen based on known results from previous experiments with a commercially available active reference compound.
In the present example, both permethrin and fipronil were employed as reference compounds. The insect species tested was the Brown Dog Tick (Rhipicephalus sanguineus). Mixed sex adult ticks were used for tests. The strain used was cultured from a field strain and supplied as unfed adult ticks (mixed sex). Ticks were maintained in controlled conditions (temp. 18°±2° C., humidity 75±5% RH).
Test compounds (formulations or active ingredients) were stored in a refrigerator (5±1° C.) unless otherwise specified. The temperature was maintained at 25±1° C. and the humidity was ambient. The screening dose chosen was higher than that known kill 90% of insects (LD90) using the reference compound. In the case of topical application of active compounds on adult ticks, the reference compound was fipronil and the dose chosen was 10 μg of active per tick (=10 μg of fipronil/1 μl of acetone). Ticks were each treated on the abdomen with 1 μL of a single dose level of test sample in acetone; ten ticks were treated with solvent only (acetone) in each test. Tests were replicated 4 times (total of 40 ticks treated). Ticks were held in recovery containers maintained under appropriate rearing conditions for 24 hours. Mortality resulting from the treatments was recorded at 24 hours. Pooled 24 hour mortality data were converted to percentages.
as §2

Structure (SMILES) | Ctenocephalides felis LC50 [1] [μg/cm^2] | Ctenocephalides felis Mortality (%) 24 h [2] [%] | Haemonchus contortus LD99 (Haemonchus contortus) [µg/mL] | mortality at 1.26 µg/cm2, 1.26 µg/cm2 ([2]; Ctenocephalides felis, 24 h, read-out: Ctenocephalides felis Mortality (%) 24 h) [%] | Rhipicephalus sanguineus Mortality (%) 24 h [3] [%]
O=S(=O)(Nc1ccc(Cl)cc1Oc1ccc(F)c(F)c1)C(F)(F)F [Compound 16] | 0.78 | 100 | 11.0 |  | 
O=S(=O)(Nc1ccc(Cl)cc1Sc1ccc(Cl)cc1)C(F)(F)F [Compound 12, N-[4-Chloro-2-((4-chlorophenyl)sulfanyl)phenyl]-1,1,1-trifluoromethanesulfonamide] | 0.15 |  | 2.8 | 100 | 50
O=S(=O)(Nc1ccc(Cl)cc1Sc1cccc(Cl)c1)C(F)(F)F [Compound 15] | 0.30 | 100 | 5.5 |  | 
O=S(=O)(Nc1ccc(Cl)cc1Oc1ccccc1F)C(F)(F)F [Compound 14] | 0.05 | 100 | 13.0 |  | 98
O=S(=O)(Nc1cc(C(F)(F)F)ccc1Oc1cccc(C(F)(F)F)c1)C(F)(F)F [Compound 9] | 0.09 | 94 | 2.5 |  | 25
O=S(=O)(Nc1ccc(Cl)cc1Sc1ccccc1F)C(F)(F)F [Compound 68] | 0.59 | 100 |  |  | 55
O=S(=O)(Nc1cc(Cl)ccc1Oc1ccc(Cl)cc1Cl)C(F)(F)F [Compound 8] | 0.59 | 62 | 2.75 |  | 
O=S(=O)(Nc1ccc(Cl)cc1Oc1ccc(Cl)cc1)C(F)(F)F [Compound 5] | 0.66 | 100 | 11.0 |  | 
O=S(=O)(Nc1ccc(Cl)cc1Sc1ccccc1)C(F)(F)F [Compound 59] | 0.97 | 100 |  |  | 
Cc1ccccc1Oc1cc(Cl)ccc1NS(=O)(=O)C(F)(F)F [Compound 21] | 0.12 | 100 | 15.0 |  | 90
O=S(=O)(Nc1ccc(Cl)cc1Sc1ccc(F)cc1)C(F)(F)F [Compound 20] | 0.13 | 100 | 13.0 |  | 95
O=S(=O)(Nc1cc(C(F)(F)F)ccc1Oc1ccc(F)cc1)C(F)(F)F [Compound 30] | 0.71 | 100 |  |  | 
O=S(=O)(Nc1ccc(C(F)(F)F)cc1Oc1cccc(C(F)(F)F)c1)C(F)(F)F [Compound 55] | 1.88 | 100 |  |  | 
O=S(=O)(Nc1ccc(Cl)cc1Oc1ccc(F)cc1F)C(F)(F)F [Compound 4] | 0.27 | 98 | 12.0 |  | 83
O=S(=O)(Nc1ccc(Cl)cc1Oc1cccc(F)c1)C(F)(F)F [Compound 25] | 0.73 | 100 |  |  | 
C#CCN(c1ccc(Cl)cc1Oc1ccccc1F)S(=O)(=O)C(F)(F)F [Compound 85] |  | 97 |  |  | 5
COCN(c1ccc(Cl)cc1Oc1ccc(Cl)cc1Cl)S(=O)(=O)C(F)(F)F [Compound 84] |  | 100 |  |  | 0
CCc1ccccc1Oc1cc(Cl)ccc1NS(=O)(=O)C(F)(F)F [Compound 38] | 0.75 | 95 |  |  | 
O=S(=O)(Nc1ccc(Cl)cc1Oc1ccc(F)cc1)C(F)(F)F [Compound 26] | 0.33 | 100 |  |  | 
